Assay results as given in US20240158370A1, “CK1 alpha AND DUAL CK1 alpha / GSPT1 DEGRADING COMPOUNDS” (Innovo Therapeutics, Inc., priority 2022, published 2024).

What was measured:
Assay type in all cases: cell-based
CK1α = target: T1, CK1α (Homo sapiens, UniProt P48729+Q96SW2); assay: HiBiT degradation assay, CK1α, Procedure A; settings: six hours incubation
T1 construct: CSNK1A1-HiBit KI HEK293(LgBit) Cells; host or cells: HEK293(LgBit) knock-in cells
Outline: (§1)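 Luminescence from HiBiT lytic detection, read after 20 min shaking, gave DC50 and Ymin by 4-parameter fit. Before that, cells (1×10^6 cells/ml, DMEM+10% FBS) sat 6 h at 37° C on 10-point compound series (10 μM–0.005 μM, 0.1% DMSO).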

Z-138 cells = assay: Z-138 Proliferation Assay (Cell Titer-Glo); settings: 72 hours; for Ymin (%): % remaining (percent of DMSO control); for EC50: Homo sapiens, Cell Titer-Glo, 4-parameter curve fit
Description: Z-138 Proliferation Assay
Z-138 cells were cultured in IMDM Medium supplemented with 10% heat in-activated fetal bovine serum and 1% Penicillin-Streptomycin.
10 mM stocks of compound were made from fresh powder. DMSO was added to solid compound so that the final concentration was 10 mM. Compounds were vortexed and allowed to sit for 5 minutes to ensure complete solubility. Solvated compound was aliquoted into 1 ml Eppendorf tubes and stored in a −20° C. freezer.
Z-138 cells were maintained in culture using standard cell culturing techniques.
Cells were maintained at a density of 0.8×10^6 cells/ml.
Re-constitute cell titer-glo reagent according to manufacturer's protocol.
Z-138 cells were removed from culture and cell viability and density were determined using a CellDrop™ Automated Cell Counter with Tryphan blue stain according to manufacturer's protocols. Cells were centrifuged and resuspended using fresh media to a cell density of 0.1×10^6 cells/ml. […] 40 μl of cell suspension was added to the wells of a 384 well tissue culture plate (4,000 cells/well final). Upon completing the addition of the cells to the plate, the plates were centrifuged for 30 seconds at 300 rpms to help the cells settle and to bring air bubbles to the top of the wells. Air bubbles were popped using a pipette tip.
10-point dose response curves were performed using a D300e Digital Dispenser. The highest concentration of compound used in the assay was 10,000 nM. 1:2 dilutions were performed over a 10-point range with the final DMSO concentration being 0.1%. The cells were cultured for 72 hours in the presence of compound.
After 72 hours, the cell plates were removed from the incubator and allowed to equilibrate to room temperature (about 15 minutes). 20 μl of cell titer-glo reagent was added to each well of the 384 well plate. Incubated the plate for 30 minutes in the dark. After 30 minutes, ensured that there were no air bubbles in the plate (popped bubbles with pipette tip if necessary) and analyzed plate using a luminometer.
EC50 curves were generated using Prism Graph Pad. In brief, POCs (percent of control, compound/DMSO control×100) were plotted against the compound concentrations (log scale). EC50 curves were generated using a 4-parameter curve fit.

GSPT1 = GSPT1 (Homo sapiens, UniProt P15170+Q96SW2); assay: HiBiT degradation assay, GSPT1, Procedure A; set-up: HiBit-GSPT1 KI HEK293(LgBit) Cells; host or cells: HEK293(LgBit) knock-in cells; settings: six hours incubation
Outline: as §1

Chain of GSPT1 (P15170 whole entry): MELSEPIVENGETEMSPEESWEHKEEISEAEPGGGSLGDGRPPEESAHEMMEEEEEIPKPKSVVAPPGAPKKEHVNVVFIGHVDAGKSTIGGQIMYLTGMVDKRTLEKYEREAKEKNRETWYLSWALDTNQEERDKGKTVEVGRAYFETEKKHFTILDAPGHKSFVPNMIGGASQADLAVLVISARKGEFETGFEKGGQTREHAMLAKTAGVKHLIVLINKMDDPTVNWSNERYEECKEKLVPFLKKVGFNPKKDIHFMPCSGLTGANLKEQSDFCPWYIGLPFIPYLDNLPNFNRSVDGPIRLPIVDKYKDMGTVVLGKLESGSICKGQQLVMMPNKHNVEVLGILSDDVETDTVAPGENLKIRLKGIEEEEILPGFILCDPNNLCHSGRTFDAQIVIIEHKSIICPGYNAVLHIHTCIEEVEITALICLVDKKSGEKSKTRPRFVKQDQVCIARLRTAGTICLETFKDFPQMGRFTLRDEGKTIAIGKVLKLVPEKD
Chain of GSPT1 (Q96SW2 whole entry): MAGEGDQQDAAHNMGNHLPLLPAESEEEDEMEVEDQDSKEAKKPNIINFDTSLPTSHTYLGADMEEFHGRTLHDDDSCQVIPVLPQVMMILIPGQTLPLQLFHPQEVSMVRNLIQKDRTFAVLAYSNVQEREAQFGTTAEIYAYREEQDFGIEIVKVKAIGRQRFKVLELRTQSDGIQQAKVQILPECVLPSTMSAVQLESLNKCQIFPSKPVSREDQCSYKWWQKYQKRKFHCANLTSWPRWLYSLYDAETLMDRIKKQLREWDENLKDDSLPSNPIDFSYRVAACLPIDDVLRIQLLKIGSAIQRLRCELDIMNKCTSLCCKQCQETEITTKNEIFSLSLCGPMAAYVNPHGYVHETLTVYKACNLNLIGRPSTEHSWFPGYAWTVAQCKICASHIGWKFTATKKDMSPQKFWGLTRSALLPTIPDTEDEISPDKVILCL
Chain of GSPT1 (Q16531 whole entry partner): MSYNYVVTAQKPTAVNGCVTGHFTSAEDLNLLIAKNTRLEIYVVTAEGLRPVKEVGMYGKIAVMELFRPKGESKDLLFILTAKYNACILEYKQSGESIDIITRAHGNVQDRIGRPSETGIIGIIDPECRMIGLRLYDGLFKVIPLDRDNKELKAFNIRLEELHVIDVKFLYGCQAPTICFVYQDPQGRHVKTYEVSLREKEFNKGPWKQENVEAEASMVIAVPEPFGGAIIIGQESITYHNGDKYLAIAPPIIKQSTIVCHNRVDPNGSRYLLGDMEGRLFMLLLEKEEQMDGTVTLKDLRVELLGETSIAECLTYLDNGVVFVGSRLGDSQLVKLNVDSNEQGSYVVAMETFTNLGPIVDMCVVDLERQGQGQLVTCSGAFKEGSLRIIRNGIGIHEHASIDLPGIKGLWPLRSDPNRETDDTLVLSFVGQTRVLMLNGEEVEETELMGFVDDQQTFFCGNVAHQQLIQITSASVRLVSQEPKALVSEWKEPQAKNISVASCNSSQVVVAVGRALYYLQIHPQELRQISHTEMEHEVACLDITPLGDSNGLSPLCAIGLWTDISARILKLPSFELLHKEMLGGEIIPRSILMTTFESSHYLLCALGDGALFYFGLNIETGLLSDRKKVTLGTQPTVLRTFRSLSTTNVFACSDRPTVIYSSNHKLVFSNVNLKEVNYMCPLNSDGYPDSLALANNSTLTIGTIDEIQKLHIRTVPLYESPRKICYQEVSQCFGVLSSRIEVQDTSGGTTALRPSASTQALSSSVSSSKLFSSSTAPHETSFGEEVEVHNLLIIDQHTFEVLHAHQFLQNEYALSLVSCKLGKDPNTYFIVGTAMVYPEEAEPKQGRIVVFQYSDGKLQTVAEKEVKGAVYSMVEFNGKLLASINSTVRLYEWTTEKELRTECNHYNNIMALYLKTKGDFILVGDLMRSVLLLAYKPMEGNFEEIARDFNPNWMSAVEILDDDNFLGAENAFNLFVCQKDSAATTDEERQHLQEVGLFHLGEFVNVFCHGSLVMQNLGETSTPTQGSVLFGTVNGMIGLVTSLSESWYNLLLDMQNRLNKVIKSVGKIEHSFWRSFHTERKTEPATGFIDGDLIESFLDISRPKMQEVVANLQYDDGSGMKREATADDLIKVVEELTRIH
T1 sequence (P48729 whole entry): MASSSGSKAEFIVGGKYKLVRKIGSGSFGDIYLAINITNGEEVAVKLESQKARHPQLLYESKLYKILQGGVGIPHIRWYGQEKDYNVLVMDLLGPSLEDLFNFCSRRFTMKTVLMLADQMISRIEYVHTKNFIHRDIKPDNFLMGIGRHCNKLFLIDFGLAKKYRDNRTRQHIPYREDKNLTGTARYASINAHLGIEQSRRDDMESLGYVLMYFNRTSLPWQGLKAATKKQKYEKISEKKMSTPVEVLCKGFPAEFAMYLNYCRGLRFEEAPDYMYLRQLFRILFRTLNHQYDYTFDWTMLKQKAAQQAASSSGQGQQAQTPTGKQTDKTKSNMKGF
T1 sequence (Q96SW2 whole entry): as the sequence (Q96SW2 whole entry) above
T1 sequence (Q16531 whole entry partner): as the sequence (Q16531 whole entry partner) above

CK1α Ymin (CK1α) | DC50 (CK1α) | DC50 (GSPT1) | GSPT1 Ymin (GSPT1) | SMILES | Ymin (%) (Z-138 cells) | EC50 (Z-138 cells)
C (C = 0-10% remaining) | < 25 nM | ≥ 25 nM | F (F = >75-100% remaining) | CCn1nc(-c2ccccc2)c(-c2ccc3c(c2)CN(C2CCC(=O)NC2=O)C3=O)n1 (stereo not drawn) [Example 51, 3-(5-(2-Ethyl-5-phenyl-2H-1,2,3-triazol-4-yl)-1-oxoisoindolin-2-yl)piperidine-2,6-dione] | D (0-10% remaining) | 10 to 100 nM
C (C = 0-10% remaining) | < 25 nM | < 25 nM | F (F = >75-100% remaining) | Cn1c(C(F)(F)F)nc(-c2ccc3c(c2)CN(C2CCC(=O)NC2=O)C3=O)c1-c1ccccc1 (stereo not drawn) [Example 52, 3-(5-(1-Methyl-5-phenyl-2-(trifluoromethyl)-1H-imidazol-4-yl)-1-oxoisoindolin-2-yl)piperidine-2,6-dione] | D (0-10% remaining) | < 10 nM
C (C = 0-10% remaining) | < 25 nM | ≥ 25 nM | F (F = >75-100% remaining) | COc1ccc(-c2c(-c3ccc4c(c3)CN(C3CCC(=O)NC3=O)C4=O)cnn2C)c(F)c1 (stereo not drawn) [Example 64] | E (>10-25% remaining) | < 10 nM
D (D = >10- 25% remaining) | < 25 nM | ≥ 25 nM | F (F = >75-100% remaining) | Cc1ccc(-c2c(-c3ccc4c(c3)CN(C3CCC(=O)NC3=O)C4=O)cnn2C)cc1 (stereo not drawn) [Example 72] | E (>10-25% remaining) | 10 to 100 nM
D (D = >10- 25% remaining) | < 25 nM | ≥ 25 nM | C (C = 0-10% remaining) | Cn1cnc(-c2ccc3c(c2)CN(C2CCC(=O)NC2=O)C3=O)c1-c1ccc(F)c(C#N)c1 (stereo not drawn) [Example 184] | D (0-10% remaining) | 10 to 100 nM
D (D = >10- 25% remaining) | < 25 nM | ≥ 25 nM | F (F = >75-100% remaining) | O=C1CCC(N2Cc3cc(-c4cnn5c4-c4ccccc4C5)ccc3C2=O)C(=O)N1 (stereo not drawn) [Example 212, 3-(1-Oxo-5-(8H-pyrazolo[5,1-a]isoindol-3-yl)isoindolin-2-yl)piperidine-2,6-dione] | D (0-10% remaining) | 100 to 500 nM
C (C = 0-10% remaining) | < 25 nM | ≥ 25 nM | F (F = >75-100% remaining) | CN(C)Cc1ccc(-c2c(-c3ccc4c(c3)CN(C3CCC(=O)NC3=O)C4=O)cnn2C)cc1 (stereo not drawn) [Example 224] | E (>10-25% remaining) | < 10 nM
C (C = 0-10% remaining) | < 25 nM | < 25 nM | F (F = >75-100% remaining) | CN(C)Cc1ccc(-c2c(-c3ccc4c(c3)CN(C3CCC(=O)NC3=O)C4=O)ncn2C)cc1 (stereo not drawn) [Example 269] | D (0-10% remaining) | < 10 nM
D (D = >10- 25% remaining) | < 25 nM | < 25 nM | F (F = >75-100% remaining) | Cn1cnc(-c2ccc3c(c2)CN(C2CCC(=O)NC2=O)C3=O)c1-c1cccc(N2CCCC2)c1 (stereo not drawn) [Example 287] | D (0-10% remaining) | < 10 nM
C (C = 0-10% remaining) | < 25 nM | ≥ 25 nM | E (E = >25-75% remaining) | Cn1cc(-c2c(-c3ccc4c(c3)CN(C3CCC(=O)NC3=O)C4=O)ncn2C)cn1 (stereo not drawn) [Example 319] | D (0-10% remaining) | 10 to 100 nM
D (D = >10- 25% remaining) | < 25 nM | ≥ 25 nM | F (F = >75-100% remaining) | Cn1cnc(-c2ccc3c(c2)CN(C2CCC(=O)NC2=O)C3=O)c1-c1cnn2ccccc12 (stereo not drawn) [Example 331] | D (0-10% remaining) | 10 to 100 nM
